Test results published in publication PMC4814829, “Design, synthesis, crystallization and biological evaluation of new symmetrical biscationic compounds as selective inhibitors of human Choline Kinase α1 (ChoKα1)” (Scientific Reports, 2016).

Experiments:
human ChoKα1 = target: T1, human ChoKα1 (Homo sapiens, UniProt P35790); test: Tryptophan fluorescence quenching; type: binding; conditions: mean ± S.D. of at least three independent experiments; 25 °C, enzyme 1 μM; read-out: HsChoKα1 Kd
T1 construct: made in house
Protocol: All compounds were prepared in 100% DMSO. Their Kds against human ChoKα1 were measured by monitoring the quenching of tryptophan fluorescence. All experiments were performed in a Cary Eclipse spectrofluorometer (Varian) at 25 °C with the enzymes at 1 μM, and concentrations of compounds varying from 0.1 to 5 μM for ChoKα1 in 25 mM Tris, 150 mM NaCl, pH 7.5. Fluorescence emission spectra were recorded in the 300–400 nm range with an excitation wavelength of 280 nm, with slit width of 5 nm. Controls were determined by incubating the enzymes with equivalent amounts of DMSO. As indicated previously, data analysis was performed in Prism (GraphPad software) considering a model with a single binding site (Eq. 1), where F0 is the intrinsic fluorescence of the enzyme in the absence of quencher (Q), F1 is the observed fluorescence at a given quencher concentration, fa is the fractional degree of fluorescence, and Kd is the dissociation constant.

purified human ChoKα1 = purified human ChoKα1 (Homo sapiens, UniProt P35790); test: Determination of human choline kinase α1 activity ([methyl-14C]choline incorporation into phosphocholine); type: biochemical; conditions: mean ± SEM, three independent experiments; read-out: IC50 ChoKα1 purified
Protocol: The effect of the different inhibitors on human choline kinase (ChoK) was assayed in ChoKα1 purified as previously described[32]. In each experiment DMSO-assays were always run in parallel as a control. DMSO in no case exceeded a concentration of 0.1% in order to avoid unspecific ChoK inhibition. ChoK activity was assayed by measuring the rate of incorporation of ^14C from [methyl-^14C]choline into phosphocholine both in the presence or absence of different inhibitor concentrations. Briefly, the final reaction mixture contained 100 mM Tris (pH 8.5), 10 mM MgCl2, and 10 mM ATP, and 20 ng of purified ChoKα1. […] The assay was stopped by immersing the reaction tubes in boiling water for 3 min. Aliquots of the reaction mixture were applied to the origin of Silica Gel plates in the presence of phosphocholine (0.1 mg) and choline (0.1 mg) as carriers. The chromatography was developed in methanol/0.6% NaCl/28% NH4OH in water (50:50:5, v/v/v) as solvent. Phosphocholine was visualized under exposure to iodine vapor and the corresponding spot was scraped and transferred to scintillation vials for measurement of radioactivity by a Beckman 6000-TA (Madrid, Spain) liquid-scintillation counter. At least three experiments were performed in all assays.

A549 cells = test: Antiproliferative MTT assay; type: cell-based; conditions: Homo sapiens, 72 h, mean ± SEM
Protocol: (§1) Human T-cell leukemia (Jurkat), human B-cell leukemia (RS 4,11) and human promyelocytic leukemia (HL-60) cells were grown in RPMI-1640 medium (Gibco, Milan, Italy). Breast adenocarcinoma (MCF-7 and MDA-MB-231), human non-small cell lung carcinoma (A549), human cervix carcinoma (HeLa), human prostate adenocarcinoma (PC-3), and human colon adenocarcinoma (HT-29) cells were grown in DMEM medium (Gibco, Milan, Italy). Both media were supplemented with 115 units/mL of penicillin G (Gibco, Milan, Italy), 115 μg/mL of streptomycin (Invitrogen, Milan, Italy) and 10% fetal bovine serum (Invitrogen, Milan, Italy). Stock solutions (10 mM) of the different compounds were obtained by dissolving them in DMSO. Individual wells of 96-well tissue-culture microtiter plates were inoculated with 100 μL of complete medium containing 8 × 10^3 cells. The plates were incubated at 37 °C in a humidified 5% CO2 incubator for 18 h prior to the experiments. After medium removal, 100 μL of fresh medium containing the test compound at different concentrations was added to each well and incubated at 37 °C for 72 h. The percentage of DMSO in the medium in no case exceeded 0.25%.

HL-60 cells = test: Antiproliferative MTT assay; type: cell-based; conditions: Homo sapiens, 72 h, mean ± SEM
Protocol: as §1

HT-29 cells = test: Antiproliferative MTT assay; type: cell-based; conditions: Homo sapiens, 72 h, mean ± SEM
Protocol: as §1

HeLa cells [1] = test: Antiproliferative MTT assay; type: cell-based; conditions: Homo sapiens, 72 h, mean ± SEM
Protocol: as §1

Jurkat cells [2] = test: Antiproliferative MTT assay; type: cell-based; conditions: Homo sapiens, 72 h, mean ± SEM
Protocol: as §1

MCF-7 cells [3] = test: Antiproliferative MTT assay; type: cell-based; conditions: Homo sapiens, MCF7, 72 h, mean ± SEM
Protocol: as §1

MDA-MB-231 cells [4] = test: Antiproliferative MTT assay; type: cell-based; conditions: Homo sapiens, 72 h, mean ± SEM
Protocol: as §1

PC-3 cells = test: Antiproliferative MTT assay; type: cell-based; conditions: Homo sapiens, 72 h, mean ± SEM
Protocol: as §1

RS4,11 cells = test: Antiproliferative MTT assay; type: cell-based; conditions: Homo sapiens, 72 h, mean ± SEM
Protocol: as §1

PBL (+Pha) = test: Antiproliferative assay in non-tumoral cells (MTT); type: cell-based; conditions: Homo sapiens, non-tumoral cells stimulated with phytohematoagglutinin, 72 h, mean ± SEM
Protocol: (§2) Peripheral mononuclear cells (PBMC) from healthy donors were obtained by separation on Lymphoprep (Fresenius KABI Norge AS) gradient. After extensive washing, cells were resuspended (1 × 10^6 cells/mL) in RPMI-1640 with 10% fetal bovine serum and incubated overnight. For cytotoxicity evaluations in proliferating PBL cultures, non-adherent cells were resuspended at 5 × 10^5 cells/mL in growth medium, containing 2.5 μg/mL PHA (Irvine Scientific). Different concentrations of the test compounds were added, and viability was determined 72 h later by the MTT test. For cytotoxicity evaluations in resting PBL cultures, non-adherent cells were resuspended (5 × 10^5 cells/mL) and treated for 72 h with the test compounds, as described above.

PBL (resting) = test: Antiproliferative assay in non-tumoral cells (MTT); type: cell-based; conditions: Homo sapiens, 72 h, mean ± SEM
Protocol: as §2

Human fibroblasts = test: Antiproliferative assay in non-tumoral cells; type: cell-based; conditions: Fibroblast, mean ± SEM
Text: Human fibroblasts from foreskin were isolated as previously described[58] and maintained in DMEM medium with 10% fetal bovine serum added.

HUVEC = test: Antiproliferative assay in non-tumoral cells; type: cell-based; conditions: Homo sapiens, mean ± SEM
Protocol: Human Umbilical Vein Endothelial cells (HUVEC), were prepared from human umbilical-cord veins, as previously described. The adherent cells were maintained in M200 medium added by LSGS (low serum growth supplement), containing FBS, hydrocortisone, hEGF, bFGF, heparin, gentamycin/amphotericin (Life Technologies, Monza, Italy). Once confluent, the cells were detached by trypsin–EDTA solution and used in experiments from the first to sixth passages.

[5] = test system: panel of nine different human tumor-cell lines; test: Antiproliferative activity against the panel of nine human tumor-cell lines; type: cell-based; conditions: Homo sapiens; range or bound over all tested cell lines; read-out: GI50 across the tumor-cell line panel
Protocol: as §1

HeLa cells [6] = test: Trypan blue exclusion assay; type: cell-based, human; conditions: concentration-dependent
Protocol: as §1

MDA-MB-231 cells [7] = test: Trypan blue exclusion assay; type: cell-based, human; conditions: MDA-MB-231, concentration-dependent
Protocol: as §1

Jurkat cells [8] = test: Annexin-V/PI assay; type: cell-based, human; conditions: 72 h, positive controls Cis-Pt 50 μM, Etoposide 5 μM
Protocol: (§3) Surface exposure of PS on apoptotic cells was measured by flow cytometry with Cytomics FC500 (Beckman Coulter) by adding simultaneously annexin-V conjugated to fluorescein isothiocyanate (FITC) and PI to cells according to the manufacturer′s instructions (Annexin-V Fluos, Roche Diagnostic).

MCF-7 cells [9] = test: Annexin-V/PI assay; type: cell-based, human; conditions: MCF-7, 72 h; positive controls Cis-Pt 50 μM, Etoposide 5 μM
Protocol: as §3

MDA-MB-231 cells [10] = test: Annexin-V/PI assay; type: cell-based, human; conditions: MDA-MB-231, 72 h; positive controls Cis-Pt 50 μM, Etoposide 5 μM
Protocol: as §3

purified human ChoKα1, sequence (P35790 whole entry): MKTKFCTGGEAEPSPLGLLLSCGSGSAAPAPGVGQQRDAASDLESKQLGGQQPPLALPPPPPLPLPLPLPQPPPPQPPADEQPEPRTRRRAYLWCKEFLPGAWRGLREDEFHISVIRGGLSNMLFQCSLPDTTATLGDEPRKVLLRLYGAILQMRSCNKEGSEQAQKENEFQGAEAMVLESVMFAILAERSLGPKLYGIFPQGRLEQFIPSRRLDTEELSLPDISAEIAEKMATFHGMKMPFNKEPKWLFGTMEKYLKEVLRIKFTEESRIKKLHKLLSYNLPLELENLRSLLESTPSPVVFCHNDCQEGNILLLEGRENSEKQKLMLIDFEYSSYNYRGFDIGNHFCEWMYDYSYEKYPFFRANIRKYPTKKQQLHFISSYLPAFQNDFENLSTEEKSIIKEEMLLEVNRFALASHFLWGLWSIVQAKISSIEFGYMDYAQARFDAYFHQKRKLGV
T1 sequence (P35790 whole entry): as above

CN(C)c1cc[n+](Cc2ccc(OCCOc3ccc(C[n+]4ccc(N(C)C)cc4)cc3)cc2)cc1.[Br-].[Br-] [Compound 10a, 1,1′-(((ethane-1,2-diylbis(oxy))bis(4,1-phenylene))bis(methylene))bis(4-(dimethylamino)pyridinium) bromide]
Kd (human ChoKα1): 700 ± 80 nM | IC50 (purified human ChoKα1): 1000 ± 10 nM | GI50 (A549 cells): 27 ± 10 nM | GI50 (HL-60 cells): 100 ± 40 nM | GI50 (HT-29 cells): 110 ± 10 nM | GI50 (HeLa cells [1]): 79 ± 24 nM | GI50 (Jurkat cells [2]): 120 ± 80 nM | GI50 (MCF-7 cells [3]): 92 ± 19 nM | GI50 (MDA-MB-231 cells [4]): 100 ± 50 nM | GI50 (PC-3 cells): 51 ± 10 nM | GI50 (RS4,11 cells): 45 ± 5 nM | GI50 (PBL (+Pha)): 34 ± 7 nM | GI50 (PBL (resting)): 1500 ± 640 nM | GI50 (Human fibroblasts): 5.8 ± 1.3 µM | GI50 (HUVEC): 5.1 ± 0.43 µM | GI50 [5]: 27 to 120 nM | Cell growth by trypan blue count (HeLa cells [6]): significantly inhibited cell growth | Cell growth by trypan blue count (MDA-MB-231 cells [7]): significantly inhibited cell growth | Apoptotic cells (annexin-V/PI) (Jurkat cells [8]): modest increment in apoptotic cells | Apoptotic cells (annexin-V/PI) (MCF-7 cells [9]): not to be significantly different from that of the untreated cells | Apoptotic cells (annexin-V/PI) (MDA-MB-231 cells [10]): not to be significantly different from that of the untreated cells
